Measured values taken from patent US10815276B2, “Cell penetrating peptides and methods of making and using thereof” (Entrada Therapeutics, Inc., priority 2014, dated 2020).
Like-named read-outs stand apart in the source and are kept apart here. Blank lines part the entries; values can stand above or below the molecule they belong to. Starred links: 1 amine or outer side, 2 acyl side, 3 side chain; linkers in the order of their positions; H or OH if unused. Positions of bridges follow the written chain, without caps; N, C: chain ends. Non-standard residues stand in square brackets, D forms with d. Residues, ends and D or L forms follow the SMILES beside them. Groups on a side chain read outwards from the residue. Ala(7-OPO3H2-coumarin-4-yl) = N[C@@H](Cc1cc(=O)oc2cc(OP(=O)(O)O)ccc12)C(=O)O; Trimesoyl = O=C(c1cc(C(=O)[*:2])cc(C(=O)[*:3])c1)[*:1]; d(pT) = C[C@H](OP(=O)(O)O)[C@@H](N)C(=O)O; Phe(4-F) = N[C@@H](Cc1ccc(F)cc1)C(=O)O; 2Nal = N[C@@H](Cc1ccc2ccccc2c1)C(=O)O; Pip = O=C(O)[C@@H]1CCCCN1; Dap = NC[C@H](N)C(=O)O; AEEA = NCCOCCOCC(=O)O; Sar = CNCC(=O)O

Assays:
HEK293 cells = test: Live-cell confocal microscopy of internalization; type: cell-based, human; details: 5 μM pCAP peptide, 60 min
Protocol: To examine the internalization of rhodamine-labeled peptides, 5×10^4 HEK293 cells were plated in a 35 mm glass-bottomed microwell dish (MatTek). […] The cells were gently washed with DPBS twice and imaged on a Visitech Infinity 3 Hawk 2D-array live cell imaging confocal microscope. To detect the internalization of pCAP-containing peptides, HEK293 cells were similarly plated and incubated with the peptide solution (5 μM) at 37° C. for 60 min. After removal of the medium, the cells were gently washed with DPBS containing sodium pervanadate (1 mM) twice and incubated for 10 min in DPBS containing 5 μM nuclear staining dye DRAQS. The resulting cells were washed with DPBS twice and imaged on a spinning disk confocal microscope (UltraView Vox CSUX1 system). To monitor GFP internalization, 5×10^4 HEK293 cells were seeded in a 35 mm glass-bottomed microwell dish and cultured overnight. Cells were treated with cFΦR4-S-S-GFP (1 μM) at 37° C. for 2 h. After removal of the medium, the cells were incubated in DPBS containing 5 μM DRAQS for 10 min. The cells were washed with DPBS twice and imaged on a Visitech Infinity 3 Hawk 2D-array live cell imaging confocal microscope.

HeLa cells [1] = test: Cytoplasmic delivery of pCAP-containing peptides, flow cytometry; details: 10 μM peptide; for Mean fluorescence intensity (MFI) of CAP: 2 h
HeLa cells [2] = test: MTT proliferation assay with Pin1 inhibitors; type: cell-based, human; details: MTT
Protocol: HeLa cells (100 μL/each well, 5×10^4 cells/mL) were seeded in a 96-well culture plate and allowed to grow overnight in DMEM supplemented with 10% FBS. […] After that, 10 μL of a MTT stock solution (5 mg/mL) was added into each well. The plate was incubated at 37° C. for 4 h and 100 μL of SDS-HCl solubilizing solution was added into each well, followed by thorough mixing. The plate was incubated at 37° C. overnight and the absorbance of the formazan product was measured at 570 nm on a Molecular Devices Spectramax M5 plate reader. Each experiment was performed in triplicates and the cells untreated with peptide were used as control.

Pin1 [3] = molecular target: T1, Pin1 (Homo sapiens, UniProt Q13526, S16A/Y23A); test: Pin1 binding by FA (FITC-labeled peptides)
T1 construct: The full-length human S16A/Y23A mutant Pin1 was expressed and purified from E. coli; made in house

HeLa cells [4] = test: Cellular uptake by flow cytometry; type: cell-based, human; details: 5 μM FITC-labeled peptide, 2 h
Protocol: The cellular uptake efficiency of peptide 37, peptide 1, and a previously reported membrane-impermeable monocyclic Pin1 inhibitor (Table 18, peptide 46) was assessed by incubating HeLa cells with the FITC-labeled peptides (5 μM) for 2 h and quantifying the total intracellular fluorescence by flow cytometry analysis. […] By contrast, cells treated with peptides 1 and 37 gave MFI values of 2562 and 8792, respectively. Thus, peptide 37 is internalized by HeLa cells ˜4-fold more efficiently than peptide 1. Presumably, the negative charged phosphate group of peptide 1 interacted electrostatically with the positively charged CPP motif and reduced the cellular uptake efficiency of the latter.

HeLa cells [5] = details: MTT
HeLa cells [6] = test: Western blot of PML protein level; type: cell-based, human; details: 0.2-5 μM
Protocol: FIGS. 38A, 38B, 38C, and 38D display cellular activity of peptide 37. (FIG. 38A) Cellular uptake of peptides 1, 37, and 46 (5 μM) by HeLa cells as analyzed by flow cytometry. MFI, mean fluorescence intensity; none, untreated cells (no peptide). (FIG. 38B) Anti-proliferative effect of peptides 37, 46, and 47 on HeLa cells as measured by MTT assay. (FIG. 38C) Western blots showing the effect of peptides 1, 37 and 47 on the protein level of PML in HeLa cells. β-Actin was used as loading control. (FIG. 38D) Quantification of western blot results from (FIG. 38C). Data reported were after background subtraction and represent the mean±SD from 3 independent experiments.
Finally, to ascertain that Pin1 is the molecular target of peptide 37 in vivo, the intracellular protein level of a well-established Pin1 substrate, […] (PML), was examined by western blot analysis. Pin1 negatively regulates the PML level in a phosphorylation-dependent manner and inhibition of Pin1 activity is expected to stabilize PML and increase its intracellular level. […] The effect was already significant at 0.2 μM inhibitor (1.8-fold increase in the PML level) and plateaued at ˜1 μM (3.3-fold increase). Again, bicyclic peptide 47 had no effect under the same conditions, while peptide 1 (the positive control, at 5 μM) increased the PML level by 3.1-fold.

Jurkat cells = test: In cellulo fluorimetric caspase assay; type: cell-based; details: staurosporin-treated cells, 5 μM peptide, 10-h period
Protocol: 100 μL of Jurkat cell suspension (5×10^5 cells/mL) was seeded in 96-well plate one hour prior to the experiment. Ten μL of staurosporine stock solution (10 μM) was added into half of the wells to induce apoptosis, while 10 μL of media was added to the other wells. After 1 h incubation, caspase-3 fluorogenic substrates were added to the cells to a final concentration of 5 μM. The fluorescence of the released coumarin was measured on the Spectramax M5 plate reader with excitation and emission wavelengths at 360 and 440 nm at various times points (0-6 h). The fluorescence unit (FU) increases between induced and uninduced cells were plotted against the time to present caspase-3 activities measured using various fluorogenic substrates in living cell in real-time. Three independent sets of experiments, each performed in triplicate, were conducted.
Jurkat cells were pretreated with the kinase inhibitor staurosporin to induce caspase activities and thus apoptosis (Belmokhtar, C A et al. Biochem. J. 1996, 315, 21). These cells were then incubated with peptides 3-7 and the amount of Amc released was monitored at various time points (0-10 h). […] Peptide 4 produced the fastest fluorescence increase, reaching 459 fluorescence units (FU), followed by peptides 7 and 6. […] This slow rate of AMC release can be attributed to hydrolysis by other intracellular proteases and peptidases. Consistent with this interpretation, pretreatment of Jurkat cells with a pancaspase inhibitor Z-VAD(OMe)-FMK (Slee, E A et al. Biochem J. 1996, 315, 21) followed by incubation with peptide 4 released AMC at a rate that was similar to that of peptide 5 alone. One explanation of the above observations is that both peptides 4 and 5 can enter the cell interior efficiently, but only peptide 4 can be converted into the linear caspase substrate inside the cells.

Pin1 [7] = molecular target: T1, Pin1; test: Fluorescence anisotropy binding to Pin1; details: FITC-labeled peptide, FA analysis
Protocol: The gene coding for the catalytic domain of PTP1B (amino acids 1-321) was amplified by the polymerase chain reaction using PTP1B cDNA as template and oligonucleotides 5′-[…]-3′ and 5′-[…]-3′ as primers. […] Expression and purification of the ybbR-tagged PTP1B were carried out as previously described (Ren, L et al. Biochemistry 2011, 50, 2339-2356). […] The reaction mixture was passed through a G-25 fast-desalting column equilibrated in 30 mM HEPES, pH 7.4, 150 mM NaCl to remove any free dye molecules. The full-length human S16A/Y23A mutant Pin1 was expressed and purified from E. coli as previously described (Liu, T et al. J. Med. Chem. 2010, 53, 2494-2501).
FA experiments were carried out by incubating 100 nM FITC-labeled peptide with varying concentrations of protein in 20 mM HEPES (pH 7.4), 150 mM NaCl, 2 mM magnesium acetate, and 0.1% bovine serum albumin (BSA) for 2 h at room temperature. The FA values were measured on a Molecular Devices Spectramax M5 plate reader, with excitation and emission wavelengths at 485 and 525 nm, respectively. Equilibrium dissociation constants (KD) were determined by plotting the FA values as a function of protein concentration and fitting the curve to the following equation:
[formula] where Y is the FA value at a given protein concentration x, L is the peptide concentration, Qb/Qf is the correction factor for fluorophore-protein interaction, Amax is the maximum FA value when all of the peptides are bound to protein, while Amin is the minimum FA value when all of the peptides are free. FA competition assay was performed by incubating 100 nM FITC-labeled Pin1 inhibitor 5 with 1 μM Pin1, followed by the addition of 0-5 μM unlabeled inhibitor. The FA values were measured similarly on a pate reader. IC50 values were obtained by plotting the FA values against the competitor concentration and curve fitting using the four-parameter dose-response inhibition equation (Prism 6, GraphPad).

Molecule: RQIKIWFQNRRMKWKK-miniPEG-DE(pCAP)LI (RQIKIWFQNRRMKWKKXDEXLI; miniPEG linker; pCAP residue; (17)..(17) 8-amino-3,6-dioxaoctanoic acid; (20)..(20) phosphocoumaryl amino propionic acid) [Antp-PCP, reference compound]
CAP fluorescence in cells (confocal) (HEK293 cells): weak fluorescence
Mean fluorescence intensity (MFI) of CAP (HeLa cells [1]): 400 AU

Molecule: C[C@H](OP(=O)(O)O)[C@H]1NC(=O)CN(C)C(=O)[C@@H](C)NC(=O)[C@H](CCC(=O)N[C@@H](CCCCN)C(N)=O)NC(=O)[C@H](Cc2ccc(O)cc2)NC(=O)[C@H](Cc2ccc3ccccc3c2)NC(=O)[C@@H]2CCCCN2C1=O [Peptide 46, cyclo(D-Ala-Sar-D-pThr-Pip-Nal-Tyr-Gln)-Lys, reference compound] (cyclo([dA][Sar][d(pT)][Pip][2Nal]YE([Lys-NH2])); ring closure inferred)
Effect on cell growth (HeLa cells [2]): no effect
Kd (Pin1 [3]): 240 ± 40 nM
Mean fluorescence intensity (MFI) (HeLa cells [4]): 193
Effect on cell growth (HeLa cells [5]): neither peptide 46 nor 47 had any effect

KD (μM) (Pin1 [3]; FITC-labeled peptide, FA): No
Molecule: bicyclo[Tm-(D-Ala-Sar-D-Thr-D-Ala-Nal-Arg-Ala-D-Ala)-Dap-(Phe-Nal-Arg-Arg-Arg-Arg-Dap)]-Lys [Peptide 47]
Effect on the PML level (HeLa cells [6]): no effect
Effect on cell growth (HeLa cells [5]): neither peptide 46 nor 47 had any effect

Molecule: C[C@@H]1NC(=O)[C@H](CCCNC(=N)N)NC(=O)[C@H](Cc2ccc3ccccc3c2)NC(=O)[C@@H]2CCCCN2C(=O)[C@@H]([C@H](C)O)NC(=O)[C@H](Cc2ccc(F)cc2)NC(=O)[C@@H](Cc2ccccc2)NC(=O)c2cc3cc(c2)C(=O)NC[C@H](NC(=O)[C@@H](C)NC1=O)C(=O)N[C@@H](Cc1ccccc1)C(=O)N[C@@H](Cc1ccc2ccccc2c1)C(=O)N[C@@H](CCCNC(=N)N)C(=O)N[C@@H](CCCNC(=N)N)C(=O)N[C@@H](CCCNC(=N)N)C(=O)N[C@@H](CCCNC(=N)N)C(=O)N[C@H](C(=O)N[C@@H](CCCCN)C(N)=O)CNC3=O [Peptide 4, bicyclo[Tm-(D-Phe-Fpa-D-Thr-Pip-Nal-Arg-Ala-D-Ala)-Dap-(Phe-Nal-Arg-Arg-Arg-Arg-Dap)]-Lys] ([dF][Phe(4-F)][dT][Pip][2Nal]RA[dA][Dap]F[2Nal]RRRR[Dap]K-NH2; linker N-9-16 via Trimesoyl; C-terminus assumed)
Fluorescence increase (released Amc) (Jurkat cells): 459 FU

Molecule: C[C@@H]1NC(=O)[C@H](CCCNC(=N)N)NC(=O)[C@H](Cc2ccc3ccccc3c2)NC(=O)[C@@H]2CCCCN2C(=O)[C@@H](CC(=O)O)NC(=O)CN(C)C(=O)[C@@H]2CCCN2C(=O)c2cc3cc(c2)C(=O)NC[C@@H](C(=O)N[C@@H](CCCCN)C(N)=O)NC(=O)[C@H](CCCNC(=N)N)NC(=O)[C@H](CCCNC(=N)N)NC(=O)[C@H](CCCNC(=N)N)NC(=O)[C@H](CCCNC(=N)N)NC(=O)[C@H](Cc2ccc4ccccc4c2)NC(=O)[C@H](Cc2ccccc2)NC(=O)[C@H](CNC3=O)NC1=O [Peptide 9, bicyclo[Tm-(Pro-Sar-D-Asp-Pip-Nal-Arg-Ala)-Dap-(Phe-Nal-Arg-Arg-Arg-Arg-Dap)]-Lys] (P[Sar][dD][Pip][2Nal]RA[Dap]F[2Nal]RRRR[Dap]K-NH2; linker N-8-15 via Trimesoyl; C-terminus assumed)
KD (Pin1 [7]): abolished Pin1 inhibitory activity
Effect on cell growth (HeLa cells [2]): no effect

Molecule: RRRRRRRRR-miniPEG-DE(pCAP)LI (RRRRRRRRRXDEXLI; miniPEG linker, pCAP residue; (10)..(10) 8-amino-3,6-dioxaoctanoic acid; (13)..(13) phosphocoumaryl amino propionic acid) [Peptide R9-PCP, reference compound]
CAP fluorescence in cells (confocal) (HEK293 cells): weak fluorescence
Mean fluorescence intensity (MFI) of CAP (HeLa cells [1]): 960 AU

Molecule: cyclo(FΦRRRRQ)-miniPEG-DE(pCAP)LI (cyclo(F[2Nal]RRRRQ[AEEA]DE[Ala(7-OPO3H2-coumarin-4-yl)]LI); not fully specified (C-terminus, bridges); printed as cyclo(FΦRRRRQ)-miniPEG-DE(pCAP)LI) [cFΦR4-PCP]
CAP fluorescence in cells (confocal) (HEK293 cells): diffuse blue fluorescence throughout the cell
Mean fluorescence intensity (MFI) of CAP (HeLa cells [1]): 3510 AU
MFI of CAP in the presence of sodium pervanadate (HeLa cells [1]; PTP inhibitor sodium pervanadate): 70 AU
